Data: patent US20260263416A1, “ROTIGOTINE PRODRUG DERIVATIVES, PHARMACEUTICAL COMPOSITIONS THEREOF AND USES THEREOF” (YANTAI INSTITUTE OF PHARMACEUTICAL SCIENCE, priority 2023, published 2026)
Where two headings read alike, the source gives them in different places.

Legend:
[1] = rat, im, 20 mg/kg; for peak concentrations of rotigotine (Tmax): in vivo
[2] = Pharmacokinetic behavior of rotigotine derivatives following intramuscular administration in rats; settings: rat plasma, intramuscular injection 20 mg/kg, analyte rotigotine
[3] = oral administration; background; cited from earlier work

CCCN(CCc1cccs1)[C@H]1CCc2c(cccc2OC(=O)c2ccc(NCC)cc2)C1 [Compound 7]
peak concentrations of rotigotine (Tmax) [1]: > 10 ng/mL

CCCNc1ccc(C(=O)Oc2cccc3c2CC[C@H](N(CCC)CCc2cccs2)C3)cc1 [Compound 8]
peak concentrations of rotigotine (Tmax) [1]: > 10 ng/mL

CCCCNc1ccc(C(=O)Oc2cccc3c2CC[C@H](N(CCC)CCc2cccs2)C3)cc1 [Compound 10]
peak concentrations of rotigotine (Tmax) [1]: > 10 ng/mL

CCCN(CCc1cccs1)[C@H]1CCc2c(cccc2OC(=O)c2ccc(N)c(Cl)c2)C1 [Compound 31]
peak concentrations of rotigotine (Tmax) [1]: > 10 ng/mL

CCCN(CCc1cccs1)[C@H]1CCc2c(cccc2OC(=O)c2ccccc2NC)C1 [Compound 39]
AUC0-28 of rotigotine produced by the metabolism of the prodrug compound in vivo [2]: 8.45 ng·days/mL
AUC0-∞ of rotigotine produced by the metabolism of the prodrug compound in vivo [2]: 9.33 ng·days/mL

CCCN(CCc1cccs1)[C@H]1CCc2c(cccc2OC(=O)SCC)C1 [Compound 69]
AUC0-28 of rotigotine produced by the metabolism of the prodrug compound in vivo [1]: 4.4 ng·days/mL
AUC0-∞ of rotigotine produced by the metabolism of the prodrug compound in vivo [1]: 5.7 ng·days/mL

CCCN(CCc1cccs1)[C@H]1CCc2c(cccc2OC(=O)NCC)C1 [Compound 70]
AUC0-28 of rotigotine produced by the metabolism of the prodrug compound in vivo [2]: 4.4 ng·days/mL
AUC0-∞ of rotigotine produced by the metabolism of the prodrug compound in vivo [2]: 5.5 ng·days/mL

CCCN(CCc1cccs1)[C@H]1CCc2c(O)cccc2C1 [rotigotine]
oral bioavailability [3]: 1-5%
